# From ChEMBL document CHEMBL1201862, “PubChem BioAssay data set” (2004)
# The source made the active and inactive calls.
# Key:
# [1] = biological target: Eukaryotic translation initiation factor 4E (Mus musculus, UniProt P63073); assay: eIF4E–eIF4G protein interaction inhibitors, dose response, biochemical, TR-FRET (AID 855); assay type: functional;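 further: potency for disrupting eIF4E binding to eIF4GI seen as loss of FRET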
# [2] = biological target: T1, Neuropeptide Y receptor type 1 (Homo sapiens, UniProt P25929); assay: Fluorescence-based counterscreen for agonists of NPY-Y2: cell-based high-throughput dose response assay for agonists of NPY-Y1.; assay type: functional
# T1 sequence (P25929 whole entry): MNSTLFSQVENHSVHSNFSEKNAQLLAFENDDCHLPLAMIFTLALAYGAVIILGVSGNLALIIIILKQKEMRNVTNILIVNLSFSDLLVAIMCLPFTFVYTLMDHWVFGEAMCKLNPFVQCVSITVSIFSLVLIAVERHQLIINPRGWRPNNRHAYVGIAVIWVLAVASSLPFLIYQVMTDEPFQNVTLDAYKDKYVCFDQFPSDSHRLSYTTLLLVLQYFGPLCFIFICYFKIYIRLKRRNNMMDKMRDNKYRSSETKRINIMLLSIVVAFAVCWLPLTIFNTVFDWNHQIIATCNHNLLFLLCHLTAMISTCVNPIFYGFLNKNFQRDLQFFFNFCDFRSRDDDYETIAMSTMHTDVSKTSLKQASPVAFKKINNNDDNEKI
# [3] = biological target: T2, Neuropeptide Y receptor type 2 (Homo sapiens, UniProt P49146); assay: Fluorescence-based cell-based high-throughput dose response assay for agonists of NPY-Y2. [Related pubchem assays: 1703 (Screening assay (CNGC inhibitors).), 1359 (Screening assay (NPY-Y2 potentiators or agonists).), 1304 (Screening assay (NPY-Y1 potentiators or agonists).), 1710 (Screening assay (NPY-Y2 agonists).), 1791 (Summary AID.)]; assay type: functional
# T2 sequence (P49146 whole entry): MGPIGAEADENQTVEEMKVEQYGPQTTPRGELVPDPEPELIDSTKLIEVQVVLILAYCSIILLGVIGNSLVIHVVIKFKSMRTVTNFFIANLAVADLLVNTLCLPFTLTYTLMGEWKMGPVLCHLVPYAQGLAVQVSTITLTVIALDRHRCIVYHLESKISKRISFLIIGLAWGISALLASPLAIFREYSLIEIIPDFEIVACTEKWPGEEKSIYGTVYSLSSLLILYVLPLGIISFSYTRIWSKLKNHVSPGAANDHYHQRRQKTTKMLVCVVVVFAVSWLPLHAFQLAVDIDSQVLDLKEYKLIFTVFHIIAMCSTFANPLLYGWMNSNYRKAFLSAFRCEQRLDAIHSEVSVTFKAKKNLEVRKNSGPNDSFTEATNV
# [4] = biological target: T3, Short transient receptor potential channel 4 (Mus musculus, UniProt Q9QUQ5); assay: mouse TRPC4 channel inhibitors, dose response, cell-based, HEK293 TRPC4/mu-opioid, Fluo-4 calcium (AID 434942); assay type: functional;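 further: potency of inhibitors blocking the TRPC4 calcium response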
# T3 sequence (Q9QUQ5 whole entry): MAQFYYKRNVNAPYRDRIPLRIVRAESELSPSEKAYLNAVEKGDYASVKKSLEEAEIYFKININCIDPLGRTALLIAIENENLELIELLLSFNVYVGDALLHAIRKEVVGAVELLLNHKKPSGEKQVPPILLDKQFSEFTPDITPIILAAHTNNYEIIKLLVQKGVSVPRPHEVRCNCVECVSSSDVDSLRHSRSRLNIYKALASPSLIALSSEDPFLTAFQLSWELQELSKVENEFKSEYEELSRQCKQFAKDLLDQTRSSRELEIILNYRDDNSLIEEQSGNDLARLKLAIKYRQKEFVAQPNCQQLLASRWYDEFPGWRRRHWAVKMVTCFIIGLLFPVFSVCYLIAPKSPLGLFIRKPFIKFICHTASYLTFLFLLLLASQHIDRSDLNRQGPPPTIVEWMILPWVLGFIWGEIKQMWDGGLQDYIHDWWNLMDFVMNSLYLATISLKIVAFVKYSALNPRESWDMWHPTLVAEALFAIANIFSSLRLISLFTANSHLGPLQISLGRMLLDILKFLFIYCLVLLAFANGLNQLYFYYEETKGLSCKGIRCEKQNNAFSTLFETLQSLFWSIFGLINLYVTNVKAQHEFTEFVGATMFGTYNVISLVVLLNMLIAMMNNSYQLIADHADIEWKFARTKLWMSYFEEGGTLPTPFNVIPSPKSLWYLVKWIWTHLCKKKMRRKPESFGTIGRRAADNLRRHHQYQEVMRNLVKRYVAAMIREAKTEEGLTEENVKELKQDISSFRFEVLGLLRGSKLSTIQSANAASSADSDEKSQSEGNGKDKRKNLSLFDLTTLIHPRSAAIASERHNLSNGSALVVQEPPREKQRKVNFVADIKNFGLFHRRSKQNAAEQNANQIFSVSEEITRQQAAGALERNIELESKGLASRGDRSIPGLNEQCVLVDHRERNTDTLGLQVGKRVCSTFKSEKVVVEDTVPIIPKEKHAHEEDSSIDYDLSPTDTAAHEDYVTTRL
# [5] = system: HEK293; assay: Fluorescence-based counterscreen for potentiators or agonists of NPY-Y2: cell-based high-throughput dose response assay to identify inhibitors of cyclic nucleotide gated ion channel (CNGC) activity. In this assay, the parental HEK293 cell line transfected with a cyclic-nucleotide gated ion channel (CNGC)-based cAMP sensor is used to measure inhibition of isoproterenol-induced CNGC activity by test compound.; assay type: functional; conditions: Homo sapiens;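 further: stimulus is 1 µM isoproterenol at EC100 plus PDE inhibitor Ro 20-1724 at 25 µM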
# [6] = biological target: T4, Orexin receptor type 2 (Homo sapiens, UniProt O43614); assay: Counterscreen assay for antagonists of the orexin 1 receptor (OX1R; HCRTR1): Fluorescence-based cell-based dose response assay for antagonists of the orexin 2 receptor (OX2R; HCRTR2), run by assay provider.; assay type: functional
# T4 sequence (O43614 whole entry): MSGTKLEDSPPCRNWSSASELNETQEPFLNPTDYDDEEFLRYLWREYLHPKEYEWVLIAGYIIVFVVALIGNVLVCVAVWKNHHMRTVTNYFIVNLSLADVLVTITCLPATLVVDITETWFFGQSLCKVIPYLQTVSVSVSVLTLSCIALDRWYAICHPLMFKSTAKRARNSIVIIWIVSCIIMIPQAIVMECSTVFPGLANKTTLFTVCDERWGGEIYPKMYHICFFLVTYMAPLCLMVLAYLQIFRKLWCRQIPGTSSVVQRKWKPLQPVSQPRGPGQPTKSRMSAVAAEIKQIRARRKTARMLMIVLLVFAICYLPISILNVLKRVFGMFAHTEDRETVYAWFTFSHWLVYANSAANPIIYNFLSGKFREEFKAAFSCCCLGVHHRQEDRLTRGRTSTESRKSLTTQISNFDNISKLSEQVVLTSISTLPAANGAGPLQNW
# [7] = biological target: Peroxisome proliferator-activated receptor gamma/Nuclear receptor coactivator 2 (Homo sapiens, UniProt P37231); assay type: functional;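 further: agonist potency for raising coactivator recruitment to the receptor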
# Peroxisome proliferator-activated receptor gamma/Nuclear receptor coactivator 2, sequence (P37231 whole entry): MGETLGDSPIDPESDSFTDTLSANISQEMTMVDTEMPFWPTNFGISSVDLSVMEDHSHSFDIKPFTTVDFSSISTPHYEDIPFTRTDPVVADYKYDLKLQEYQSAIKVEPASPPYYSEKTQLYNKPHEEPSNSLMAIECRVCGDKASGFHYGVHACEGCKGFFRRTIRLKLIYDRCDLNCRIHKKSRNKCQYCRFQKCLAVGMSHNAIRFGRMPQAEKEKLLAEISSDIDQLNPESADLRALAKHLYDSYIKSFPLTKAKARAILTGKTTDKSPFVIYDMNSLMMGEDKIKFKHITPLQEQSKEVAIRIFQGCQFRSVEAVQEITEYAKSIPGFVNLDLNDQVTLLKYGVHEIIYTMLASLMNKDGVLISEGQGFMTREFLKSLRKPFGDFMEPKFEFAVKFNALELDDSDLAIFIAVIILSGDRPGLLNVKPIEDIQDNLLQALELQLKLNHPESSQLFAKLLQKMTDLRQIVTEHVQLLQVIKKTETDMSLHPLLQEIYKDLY
# Peroxisome proliferator-activated receptor gamma/Nuclear receptor coactivator 2, sequence (Q15596 whole entry, further chain): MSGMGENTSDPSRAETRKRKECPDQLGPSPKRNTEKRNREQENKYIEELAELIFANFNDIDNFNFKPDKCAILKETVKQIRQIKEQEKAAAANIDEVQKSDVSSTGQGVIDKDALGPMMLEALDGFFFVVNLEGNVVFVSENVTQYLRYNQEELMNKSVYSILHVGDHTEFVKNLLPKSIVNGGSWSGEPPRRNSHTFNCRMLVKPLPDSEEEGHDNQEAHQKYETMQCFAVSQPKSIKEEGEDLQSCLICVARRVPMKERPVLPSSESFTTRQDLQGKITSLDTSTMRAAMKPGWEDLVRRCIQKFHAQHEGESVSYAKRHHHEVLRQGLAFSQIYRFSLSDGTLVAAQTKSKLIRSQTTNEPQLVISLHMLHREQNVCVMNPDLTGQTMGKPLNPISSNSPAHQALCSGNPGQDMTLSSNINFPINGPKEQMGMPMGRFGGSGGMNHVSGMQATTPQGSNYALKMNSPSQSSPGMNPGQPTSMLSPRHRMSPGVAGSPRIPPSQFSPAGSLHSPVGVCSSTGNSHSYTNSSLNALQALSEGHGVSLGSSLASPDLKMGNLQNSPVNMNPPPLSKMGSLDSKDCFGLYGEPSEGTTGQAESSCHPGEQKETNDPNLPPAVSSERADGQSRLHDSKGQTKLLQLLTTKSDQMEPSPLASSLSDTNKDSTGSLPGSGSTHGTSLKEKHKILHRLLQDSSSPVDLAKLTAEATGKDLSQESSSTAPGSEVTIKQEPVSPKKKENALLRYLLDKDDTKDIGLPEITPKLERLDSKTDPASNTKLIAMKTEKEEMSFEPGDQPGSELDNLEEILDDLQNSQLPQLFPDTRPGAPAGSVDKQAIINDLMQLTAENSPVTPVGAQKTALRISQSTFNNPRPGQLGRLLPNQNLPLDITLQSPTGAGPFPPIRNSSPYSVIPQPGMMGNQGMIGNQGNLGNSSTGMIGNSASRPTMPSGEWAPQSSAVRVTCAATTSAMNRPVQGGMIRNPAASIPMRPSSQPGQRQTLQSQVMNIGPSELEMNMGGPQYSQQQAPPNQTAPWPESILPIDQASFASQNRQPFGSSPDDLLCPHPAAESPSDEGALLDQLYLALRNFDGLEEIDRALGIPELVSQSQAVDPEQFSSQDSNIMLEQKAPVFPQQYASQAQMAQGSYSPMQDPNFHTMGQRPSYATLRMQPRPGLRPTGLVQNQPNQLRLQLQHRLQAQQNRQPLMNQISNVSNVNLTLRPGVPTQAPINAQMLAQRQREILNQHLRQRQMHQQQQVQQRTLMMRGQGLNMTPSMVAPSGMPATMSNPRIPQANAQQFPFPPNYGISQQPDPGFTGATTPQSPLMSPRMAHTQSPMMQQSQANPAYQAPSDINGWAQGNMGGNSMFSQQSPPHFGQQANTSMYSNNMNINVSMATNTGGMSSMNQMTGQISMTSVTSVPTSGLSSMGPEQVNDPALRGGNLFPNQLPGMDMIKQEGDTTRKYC
# [8] = Luminescence Cell-Based Dose Response HTS to Identify Activators of Luciferase Translation or Activity in H4 […] Cells. [Related pubchem assays: 1829 (Project Summary), 1814 (Primary HTS)]; assay type: functional
# [9] = system: CHO-K1; assay: (§1) Counterscreen for antagonists of the orexin 1 receptor (OX1R; HCRTR1): Homogeneous time resolved fluorescence (HTRF)-based cell-based dose response assay to identify antagonists of the parental CHO-K1 cell line. [Related pubchem assays (depositor defined):AID434989, AID435008, AID463079, AID485270, AID492963, AID492964, AID492965, AID493232, AID504699, AID504701]; assay type: functional; conditions: Cricetulus griseus
# [10] = biological target: Cytochrome P450 3A4 (Homo sapiens, UniProt P08684);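 further: CYP3A4 tested as one member of a cytochrome P450 panel screen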
# Cytochrome P450 3A4, sequence (P08684 whole entry): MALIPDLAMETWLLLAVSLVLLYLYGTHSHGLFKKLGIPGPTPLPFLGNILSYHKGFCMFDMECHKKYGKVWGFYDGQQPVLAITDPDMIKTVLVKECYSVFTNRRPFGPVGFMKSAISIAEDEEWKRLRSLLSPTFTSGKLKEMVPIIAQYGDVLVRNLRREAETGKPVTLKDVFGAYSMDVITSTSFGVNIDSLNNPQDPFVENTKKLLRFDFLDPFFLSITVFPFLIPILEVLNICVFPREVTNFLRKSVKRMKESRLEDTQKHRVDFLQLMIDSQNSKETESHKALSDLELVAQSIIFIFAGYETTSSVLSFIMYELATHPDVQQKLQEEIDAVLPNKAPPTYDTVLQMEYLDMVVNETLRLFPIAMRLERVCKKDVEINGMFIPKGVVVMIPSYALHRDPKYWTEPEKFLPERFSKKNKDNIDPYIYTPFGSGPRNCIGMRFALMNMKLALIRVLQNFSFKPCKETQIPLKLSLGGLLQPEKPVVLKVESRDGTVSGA
# [11] = biological target: Peroxisome proliferator-activated receptor gamma/Nuclear receptor coactivator 3 (Homo sapiens, UniProt P37231); assay type: functional;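 further: agonist potency for raising coactivator recruitment to the receptor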
# Peroxisome proliferator-activated receptor gamma/Nuclear receptor coactivator 3, sequence (P37231 whole entry): as the sequence (P37231 whole entry) above
# Peroxisome proliferator-activated receptor gamma/Nuclear receptor coactivator 3, sequence (Q9Y6Q9 whole entry, further chain): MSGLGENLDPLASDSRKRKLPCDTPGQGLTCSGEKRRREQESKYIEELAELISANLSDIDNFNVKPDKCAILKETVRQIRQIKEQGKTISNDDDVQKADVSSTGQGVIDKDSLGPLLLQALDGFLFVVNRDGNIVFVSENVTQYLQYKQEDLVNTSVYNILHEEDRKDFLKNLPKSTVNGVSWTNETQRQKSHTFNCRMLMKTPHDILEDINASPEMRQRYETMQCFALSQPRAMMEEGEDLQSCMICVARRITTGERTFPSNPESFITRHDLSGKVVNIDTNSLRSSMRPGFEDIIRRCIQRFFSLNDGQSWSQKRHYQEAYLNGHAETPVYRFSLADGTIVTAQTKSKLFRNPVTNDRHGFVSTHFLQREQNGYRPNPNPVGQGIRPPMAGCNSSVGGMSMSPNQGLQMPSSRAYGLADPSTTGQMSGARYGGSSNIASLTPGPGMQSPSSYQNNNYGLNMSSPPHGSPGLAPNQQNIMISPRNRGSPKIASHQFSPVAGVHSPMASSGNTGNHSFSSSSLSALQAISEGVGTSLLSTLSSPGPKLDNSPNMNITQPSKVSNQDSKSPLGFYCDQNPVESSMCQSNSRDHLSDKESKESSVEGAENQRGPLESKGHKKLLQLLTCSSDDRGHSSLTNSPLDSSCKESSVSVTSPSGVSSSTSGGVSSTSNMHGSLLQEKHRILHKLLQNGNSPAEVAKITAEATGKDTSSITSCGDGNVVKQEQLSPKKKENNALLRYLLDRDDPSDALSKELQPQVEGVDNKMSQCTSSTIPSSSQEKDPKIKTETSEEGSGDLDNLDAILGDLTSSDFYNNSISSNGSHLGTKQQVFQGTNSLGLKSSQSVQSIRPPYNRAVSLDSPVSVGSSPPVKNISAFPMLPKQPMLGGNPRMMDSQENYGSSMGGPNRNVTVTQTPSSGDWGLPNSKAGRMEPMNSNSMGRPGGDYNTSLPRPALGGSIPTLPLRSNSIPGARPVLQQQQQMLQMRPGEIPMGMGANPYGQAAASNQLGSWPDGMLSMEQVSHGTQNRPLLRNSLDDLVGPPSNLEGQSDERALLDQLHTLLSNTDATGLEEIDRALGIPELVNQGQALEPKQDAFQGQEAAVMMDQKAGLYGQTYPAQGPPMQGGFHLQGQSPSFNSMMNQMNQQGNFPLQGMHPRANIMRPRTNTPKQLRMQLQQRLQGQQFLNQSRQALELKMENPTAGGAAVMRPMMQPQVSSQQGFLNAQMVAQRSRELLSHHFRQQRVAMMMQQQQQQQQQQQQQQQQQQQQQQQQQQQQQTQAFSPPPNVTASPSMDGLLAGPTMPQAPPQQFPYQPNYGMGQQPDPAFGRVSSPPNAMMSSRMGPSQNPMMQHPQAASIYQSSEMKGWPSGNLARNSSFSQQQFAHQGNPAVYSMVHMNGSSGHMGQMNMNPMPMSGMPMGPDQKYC
# [12] = biological target: Cytochrome P450 2C9 (Homo sapiens, UniProt P11712)
# [13] = biological target: T5, Orexin/Hypocretin receptor type 1 (Homo sapiens, UniProt O43613); assay: (§2) Fluorescence-based cell-based high throughput dose response assay for antagonists of the orexin 1 receptor (OX1R; HCRTR1). [Related pubchem assays (depositor defined):AID434989, AID435008, AID463079, AID485270, AID492963, AID492964, AID492965, AID493232, AID504717, AID504718]; assay type: functional
# T5 sequence (O43613 whole entry): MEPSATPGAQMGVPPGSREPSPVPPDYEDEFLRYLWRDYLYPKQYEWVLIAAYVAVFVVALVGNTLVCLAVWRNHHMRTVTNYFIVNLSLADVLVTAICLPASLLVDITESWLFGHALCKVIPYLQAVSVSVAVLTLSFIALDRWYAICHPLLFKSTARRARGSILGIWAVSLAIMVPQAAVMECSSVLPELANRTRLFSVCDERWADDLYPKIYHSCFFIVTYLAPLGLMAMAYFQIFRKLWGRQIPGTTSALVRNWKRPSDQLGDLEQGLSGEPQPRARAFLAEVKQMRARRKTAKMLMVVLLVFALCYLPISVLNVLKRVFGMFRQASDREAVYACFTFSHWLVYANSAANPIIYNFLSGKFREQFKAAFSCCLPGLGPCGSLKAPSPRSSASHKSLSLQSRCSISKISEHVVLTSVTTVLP
# [14] = biological target: T5, Orexin/Hypocretin receptor type 1; assay: as §2, with “Homogeneous Time Resolved Fluorescence (HTRF)-based” for “Fluorescence-based”; assay type: functional
# [15] = biological target: Protein-tyrosine kinase 2-beta (Homo sapiens, UniProt Q14289);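 further: potency of inhibitors of PYK2 kinase phosphorylation of poly-GT substrate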
# [16] = system: H4; assay: Luminescence Cell-Based Dose Response HTS to Identify Activators of 5'UTR Stem-Loop Driven Prion Protein mRNA Translation in H4 Neuroglioblastoma Cells. [Related pubchem assays: 1829 (Project Summary), 1814 (Primary HTS)]; assay type: functional; conditions: Homo sapiens
# [17] = Luminescence Cell-Based Dose Confirmation HTS to Identify Activators of 5'UTR Stem-Loop Driven Alpha-Synuclein mRNA Translation in H4 Neuroglioblastoma Cells. [Related pubchem assays: 1829 (Project Summary), 1814 (Primary HTS)]; assay type: functional
# [18] = biological target: Peroxisome proliferator-activated receptor gamma/Nuclear receptor coactivator 1 (Homo sapiens, UniProt P37231); assay type: functional;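 further: agonist potency as compounds enhance coactivator SRC-1 recruitment to PPARgamma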
# [19] = biological target: Cytochrome P450 2C19 (Homo sapiens, UniProt P33261); assay: Cytochrome panel assay with activity outcomes. Panel member name: p450-cyp2c19 Compounds with AC50 equal or less than 10 uM are considered active; assay type: functional; conditions: read-out: AC50
# [20] = inhibitors of Vif binding to APOBEC3G peptide, primary screen, biochemical, TR-FRET, GST-Vif 1-94, biotin-A3G peptide, dose response retest (AID 1117319); assay type: functional;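 further: TR-FRET signal of purified GST-Vif binding a biotinylated A3G peptide; inhibitors lower the FRET signal by blocking Vif and A3G binding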
# [21] = biological target: T4, Orexin receptor type 2; assay: Counterscreen assay for antagonists of the orexin 1 receptor (OX1R; HCRTR1): Homogeneous Time Resolved Fluorescence (HTRF)-based cell-based dose response assay for antagonists of the orexin 2 receptor (OX2R; HCRTR2), run by assay provider.; assay type: functional
# [22] = as §1, with “Fluorescence-based” for “Homogeneous time resolved fluorescence (HTRF)-based”, “cell-based high throughput” for “cell-based”, “CHO” for “CHO-K1”; assay type: functional
# Eukaryotic translation initiation factor 4E, sequence (P63073 whole entry): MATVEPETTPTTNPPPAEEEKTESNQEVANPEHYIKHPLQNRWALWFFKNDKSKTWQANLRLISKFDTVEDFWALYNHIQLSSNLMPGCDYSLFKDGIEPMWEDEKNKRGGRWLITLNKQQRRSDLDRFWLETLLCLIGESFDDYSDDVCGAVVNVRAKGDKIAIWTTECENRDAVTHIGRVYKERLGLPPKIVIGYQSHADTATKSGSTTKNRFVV
compound,measurement,setting,value
Cc1cccc(N2CCc3c2nc2ccccc2c3N)c1,IC50,[1],> 64 µM (inactive)
same,EC50,[2],3.07 µM (active)
same,EC50,[3],3.43 µM (active)
same,EC50,[4],1.06 µM (active)
same,EC50,[5],9.3 µM (active)
CSc1nc2ccc3nc(NC(=O)c4cccs4)sc3c2s1,IC50,[6],> 88.8 µM (inactive)
same,EC50,[7],25.5 µM (not active)
same,EC50,[8],28 µM (active)
same,IC50,[9],> 66.2 µM (inactive)
same,AC50,[10],20 µM (inconclusive)
same,EC50,[11],33.2 µM (not active)
same,AC50,[12],0.355 µM (inconclusive)
same,IC50,[13],1.23 µM (active)
same,IC50,[14],0.846 µM (active)
same,IC50,[15],6.5 µM (active)
same,EC50,[16],> 120 µM (not active)
same,EC50,[17],6.88 µM (active)
same,EC50,[18],35.9 µM (not active)
same,AC50,[19],2.82 µM (inconclusive)
same,IC50,[20],> 100 µM (active)
same,IC50,[21],> 50 µM (inactive)
same,IC50,[22],> 49.7 µM (inactive)
